Data reported in patent US20130172408A1, “Medicaments Based on Dinuclear Arene Ruthenium Complexes Comprising Bridging Thiolato, Selenolato or Alkoxo Ligands” (Universite de Neuchatel, priority 2010, published 2013).
Several values for one entry are separate records, joined by “and”; a condition that tells them apart may be missing. Equal entries are not always repeated. Where two headings read alike, the source gives them in different places.

How the values were obtained:
[1] = test system: A2780 human ovarian cancer cells; experiment: MTT assay, inhibition of cell growth, A2780; assay type: cell-based
Protocol: (§1) Human A2780 and A2780cisR ovarian carcinoma cells were obtained from the European Centre of Cell Cultures (ECACC, Salisbury, UK) and maintained in culture as described by the provider. The cells were routinely grown in RPMI 1640 medium with GlutaMAX™ containing 5% foetal calf serum (FCS) and antibiotics (penicillin and streptomycin) at 37° C. and 5% CO2.
(§2) The antiproliferative activity of complexes 9-20 was evaluated against the human ovarian A2780 cancer cell line and its cisplatin-resistant derivative A2780cisR using the MTT assay, which measures mitochondrial dehydrogenase activity as an indication of cell viability. For the evaluation of growth inhibition tests, the cells were seeded in 96-well plates (25×10^3 cells per well) and grown for 24 h in complete medium. Complexes were dissolved in DMSO and added to the required concentration to the cell culture for 72 h incubation. Solutions of the compounds were applied by diluting a freshly prepared stock solution of the corresponding compound in aqueous RPMI medium with GlutaMAX™ (20 mM). Following drug exposure, 3-(4,5-dimethylthiazol-2-yl)-2,5-diphenyltetrazolium bromide (MTT) was added to the cells at a final concentration of 0.25 mg/mL and incubated for 2 h, then the culture medium was aspirated and the violet formazan (artificial chromogenic precipitate of the reduction of tetrazolium salts by dehydrogenases and reductases) dissolved in DMSO. The optical density of each well (96-well plates) was quantified three times in triplicates at 540 nm using a multiwall plate reader (iEMS Reader MF, Labsystems, US), and the percentage of surviving cells was calculated from the ratio of absorbance of treated to untreated cells. The IC50 values for the inhibition of cell growth were determined by fitting the plot of the logarithmic percentage of surviving cells against the logarithm of drug concentration using a linear regression function. The median value and the median absolute deviation were obtained from the Excel™ software (Microsoft™) and those values are reported in Table 2.
(§3) The toxicity of further compounds in accordance with the invention shown in FIGS. 9A and 9B and of the prior art compounds PA1 and PA2 was assessed as described in Example 6.

[2] = test system: A2780cisR human ovarian cancer cells (cisplatin-resistant); experiment: MTT assay, inhibition of cell growth, A2780cisR; assay type: cell-based
Protocol: as §1, §2, §3

Solubility (qualitative) = assay type: physicochemical; settings: water and organic solvents
Description: The spectroscopic data for the analogues [18]Cl, [19]Cl and [20]Cl is in excellent agreement with that reported previously Mashima et al., Schacht et al. Chérioux et al., cited above).

[3] = test system: PLC/PRF/5 human liver cancer cells; settings: MTT assay, from JP 7089855; cited from earlier work
[4] = Stability by 1H NMR spectroscopy; assay type: physicochemical; settings: 12 hours at 37° C. in DMSO-d6, in D2O/DMSO-d6 (95:5), and in DMSO-d6 with two drops of RPMI 1640 medium containing 5% foetal calf serum
[5] = Catalytic oxidation of cysteine to cystine in aqueous solution
[6] = Catalytic oxidation of glutathione to glutathione disulfide in aqueous solution
[7] = 72 h incubation, MTT, median value (Table 2), read-out: IC50 A2780
[8] = 72 h incubation, MTT, median value (Table 2), read-out: IC50 A2780cisR
[9] = as described in Example 6 (Table 3), read-out: Average IC50 A2780
[10] = as described in Example 6 (Table 3), read-out: Average IC50 A2780cisR

| IC50 [1, 7] | IC50 [2, 8] | IC50 [1, 9] | IC50 [2, 10] | Compound | other results |
| --- | --- | --- | --- | --- | --- |
| 0.38 µM | 0.48 µM |  |  | [(C6H6)2Ru2(SPh)3]^+ [[17]C1] | IC50 ([1]; as described in Example 6 (Table 3), listed as 17, read-out: Average IC50 A2780): 0.24 µM and 0.377 µM; IC50 ([2]; as described in Example 6 (Table 3), listed as 17, read-out: Average IC50 A2780cisR): 0.253 µM and 0.477 µM; Solubility (Solubility (qualitative)): soluble in water and in organic solvents |
|  |  | 3.05 µM | 2.19 µM | CC1=C(C)C(C)C(C)=C1C.CC1=C(C)C(C)C(C)=C1C.Sc1ccccc1.Sc1ccccc1.Sc1ccccc1.[Ru+3].[Ru+3] [PA1, [(CsMes)2Ru2(p-SC6H5)3]^+, reference compound] |  |
| 0.82 µM | 1.36 µM | 0.815 µM | 1.36 µM | COc1ccc(C=CC(=O)OCCc2ccccc2)cc1.COc1ccc(C=CC(=O)OCCc2ccccc2)cc1.[Cl-].[Ru+2].[Ru+2].[S-]c1ccccc1.[S-]c1ccccc1.[S-]c1ccccc1 [[11]Cl, [trans-(C6H6—(CH2)2—O—C(O)—CH═CH—C6H4-p-O—CH3)2Ru2(SPh)3]^+] |  |
| 0.4 µM | 1.2 µM | 0.433 µM | 1.2 µM | Cc1c(C)c(C)c(C)c(C)c1C.Cc1c(C)c(C)c(C)c(C)c1C.[Cl-].[Ru+2].[Ru+2].[S-]c1ccccc1.[S-]c1ccccc1.[S-]c1ccccc1 [[19]Cl, [(C6Me6)2Ru2(SPh)3]^+] |  |
| 2.2 µM | 2.7 µM |  |  | [(C6H6—(CH2)2—O—C(O)—C6H4-p-O—(CH2)6CH3)2Ru2(SPh)3]^+ [[9]Cl] |  |
|  |  | 1.93 µM | 1.55 µM | CC1=C(C)C(C)C(C)=C1C.CC1=C(C)C(C)C(C)=C1C.Cc1ccc(S)cc1.Cc1ccc(S)cc1.Cc1ccc(S)cc1.[Ru+3].[Ru+3] [PA2, [(CsMe5)2Ru2(p-SC6H4Me)3]^+, reference compound] |  |
| 4.9 µM | 5.6 µM |  |  | CCCCCCCOc1ccc(C(=O)OCCCCc2ccccc2)cc1.CCCCCCCOc1ccc(C(=O)OCCCCc2ccccc2)cc1.[Cl-].[Ru+2].[Ru+2].[S-]c1ccccc1.[S-]c1ccccc1.[S-]c1ccccc1 [[10]Cl, [(C6H6—(CH2)4—O—C(O)—C6H4-p-O—(CH2)6CH3)2Ru2(SPh)3]^+] |  |
|  |  |  |  | Cc1c(C)c(C)[c-](C)c1C.Cc1c(C)c(C)[c-](C)c1C.[Ru+3].[Ru+3].[S-]c1ccccc1.[S-]c1ccccc1.[S-]c1ccccc1 [PA1, [(CsMes)2Ru2(p-SC6H5)3]^+, reference compound] | IC50 [3]: 131 µg/mL |
|  |  | 0.533 µM | 1.47 µM | [Ru2(p-MeC6H4Pr^i)2(p-SC6H4OH)3]^+ [Compound 21] |  |
| 0.49 µM | 0.56 µM | 0.42 µM | 0.545 µM | COc1ccc(C=CC(=O)OCCCCc2ccccc2)cc1.COc1ccc(C=CC(=O)OCCCCc2ccccc2)cc1.[Cl-].[Ru+2].[Ru+2].[S-]c1ccccc1.[S-]c1ccccc1.[S-]c1ccccc1 [[12]Cl, [trans-(C6H6—(CH2)4—O—C(O)—CH═CH—C6H4-p-O—CH3)2Ru2(SPh)3]^+] |  |
| 0.13 µM | 0.08 µM | 0.13 µM | 0.077 µM | [(p-^iPrC6H4Me)2Ru2(S-p-C6H4Me)3]^+ [[20]C1] | Stability (1H NMR signals) [4]: stable under these conditions; Catalysis of the reaction of Cysteine (Cys) to form Cystine [5]: very high efficiency; Catalysis of the reaction of Glutathione (GSH) to form glutathione disulfide (GSSG) [6]: very high efficiency |
|  |  | 0.5 µM | 0.5 µM | [Ru2(p-C6Me6)2(p-SC6H4OH)3]^+ [Compound 22] |  |
| 0.24 µM | 0.25 µM |  |  | Cc1ccc(C(C)C)cc1.Cc1ccc(C(C)C)cc1.[Cl-].[Ru+2].[Ru+2].[S-]c1ccccc1.[S-]c1ccccc1.[S-]c1ccccc1 [[18]C1, [(p-^iPrC6H4Me)2Ru2(SPh)3]^+] |  |
